Measurements reported in ChEMBL document CHEMBL1155489, “Novel 3-O-pegylated carboxylate and 3-O-pegylated carbamate prodrugs of naltrexone for microneedle-enhanced transdermal delivery” (Bioorg Med Chem Lett, 2010).
Values after ≈ are worked out from the molar mass of the structure shown.

What was measured:
[1] = Solubility in 0.3 M acetate buffer at pH 5 relative to naltrexone; type: physicochemical
[2] = Solubility in 0.3 M acetate buffer at pH 5; type: physicochemical

SMILES	Ratio [1]	solubility thermodynamic [2]
COCCOCCOCCNC(=O)Oc1ccc2c3c1O[C@H]1C(=O)CC[C@@]4(O)[C@@H](C2)N(CC2CC2)CC[C@]314	2.35	796 mM (≈ 422 mg/mL)
O=C(NCCOCCOCCO)Oc1ccc2c3c1O[C@H]1C(=O)CC[C@@]4(O)[C@@H](C2)N(CC2CC2)CC[C@]314	3.06	1040 mM (≈ 535 mg/mL)
O=C(CCOCCOCCO)Oc1ccc2c3c1O[C@H]1C(=O)CC[C@@]4(O)[C@@H](C2)N(CC2CC2)CC[C@]314	1.86	629 mM (≈ 315 mg/mL)
COCCOCCOCCC(=O)Oc1ccc2c3c1O[C@H]1C(=O)CC[C@@]4(O)[C@@H](C2)N(CC2CC2)CC[C@]314	2.81	952 mM (≈ 491 mg/mL)
O=C1CC[C@@]2(O)[C@H]3Cc4ccc(O)c5c4[C@@]2(CCN3CC2CC2)[C@H]1O5 [NALTREXONE]	–	338 mM (≈ 115 mg/mL)
